Entries after “also recorded” stand apart in the source; their conditions may differ.
Experiments:
GST-PPAR beta/delta LBD = molecular target: T1, GST-PPAR beta/delta LBD (Homo sapiens, UniProt Q03181); experiment: Competitive in vitro ligand binding, TR-FRET, displacement of Fluormone Pan-PPAR-Green; conditions: fluorescence ratio 520 nm/495 nm
T1 construct: GST-PPAR beta/delta LBD (GST=glutathione S-transferase); purchased Invitrogen, Darmstadt, Germany
T1 sequence (Q03181 211-439 limits assumed): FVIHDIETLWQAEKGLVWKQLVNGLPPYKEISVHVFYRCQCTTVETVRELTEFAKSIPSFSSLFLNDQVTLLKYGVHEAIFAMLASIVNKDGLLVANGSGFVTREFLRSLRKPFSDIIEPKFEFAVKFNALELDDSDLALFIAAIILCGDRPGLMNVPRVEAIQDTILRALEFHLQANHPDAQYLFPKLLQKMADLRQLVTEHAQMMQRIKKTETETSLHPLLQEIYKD
Method: FIG. 1: Competitive in vitro ligand binding to PPAR beta/delta. • The displacement of ligand Fluormone® Pan-PPAR Green from recombinant GST-PPAR beta/delta ligand binding domain (LBD) by the substances of the present invention comparative compound (CC) 2, compound 1 (A), compound 2 (B), and compound 3 (C), compound 4 (D), compound 5 (E) is determined by TR-FRET analysis. Shown is the ratio of fluorescence intensity at 520 nm (fluorescein emission, excited by terbium emission) and 495 nm (terbium emission). All data points represent average values of triplicates (+/−standard deviation).
A) Competitive ligand-binding of the substances of this invention was measured in vitro using time-resolved fluorescence resonance energy transfer (TR-FRET) by competition with the commercially available fluorescent Fluormone® Pan-PPAR-Green for binding to the fusion protein GST-PPAR beta/delta LBD (GST=glutathione S-transferase; LBD=ligand binding domain) (Invitrogen, Darmstadt, Germany) in a VICTOR3V Multilabel Counter (WALLAC 1420; PerkinElmer Life and Analytical Sciences, Rodgau, Germany). The measurement was performed in 100 mM KC, 20 mM Tris pH 7.9, 0.01% Triton X100 and 1 μg/μL bovine serum albumin. GST is known to the expert in the field as suitable fusion partner for proteins. For this purpose, the ratio of fluorescence intensities at 520 nm (fluorescein emission excited by terbium emission) and at 495 nm (terbium emission) is determined.

PPAR beta/delta = molecular target: T2, PPAR beta/delta (Homo sapiens, UniProt Q03181); experiment: Agonist-induced transcriptional activity, luciferase reporter in WPMY-1 cells; type: cell-based; conditions: human WPMY-1 myofibroblasts, 500 nM substance, 500 nM agonist L165041
T2 construct: expressed in transfected cells; host or cells: WPMY-1 human myofibroblasts, transient transfection with PEI
T2 sequence (Q03181 1-441): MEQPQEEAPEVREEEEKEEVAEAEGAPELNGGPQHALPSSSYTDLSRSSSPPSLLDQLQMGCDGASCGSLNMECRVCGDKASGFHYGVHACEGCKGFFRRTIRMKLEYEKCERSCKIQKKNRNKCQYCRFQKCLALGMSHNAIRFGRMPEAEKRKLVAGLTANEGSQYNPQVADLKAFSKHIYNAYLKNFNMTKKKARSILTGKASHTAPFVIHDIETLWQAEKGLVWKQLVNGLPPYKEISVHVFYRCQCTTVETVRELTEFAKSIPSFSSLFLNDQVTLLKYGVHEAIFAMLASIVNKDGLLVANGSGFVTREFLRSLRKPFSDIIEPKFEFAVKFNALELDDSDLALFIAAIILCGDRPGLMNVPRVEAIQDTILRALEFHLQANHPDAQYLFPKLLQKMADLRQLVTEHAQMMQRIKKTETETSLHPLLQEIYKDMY
Method: FIG. 4: Effect of the substances of this invention comparative compound (CC) 2, compound 1, compound 5, compound 2 and compound 3 on the agonist-induced transcriptional activity of PPAR subtypes alpha (A), beta/delta (B) and gamma (C). • WPMY-1 cells are transiently transfected with a luciferase reporter plasmid. Four hours after transfection, cells are treated for 48 hours with the respective antagonist (500 nM), followed by a treatment with 300 nM of PPAR alpha agonist GW7647 (A), 500 nM of PPAR beta/delta agonist L165041 (B) or 300 nM of PPAR gamma agonist GW1929 (C). The relative induction is represented by the luciferase activity of the agonist-treated transfected cells in relation to solvent-treated transfected cells. Asterisks (**, *) indicate significant differences to untreated cells (after t-test; **: p<0.01; *: p<0.05). GW7647 is commercially available from Sigma-Aldrich (Steinheim, Germany). L165041 and GW1929 can be obtained from Biozol (Eching, Germany).
D) The influence of substances of this invention on the agonist-induced transcriptional activity of PPAR subtypes alpha, beta/delta or gamma is determined in WPMY-1 myofibroblasts transfected transiently with a luciferase reporter plasmid (LexA system) using polyethyleneimine (PEI) according to a method known to the expert. As agonists, substances GW7647 for PPAR alpha or L165041 for PPAR beta/delta or GW1929 for PPAR gamma known to the expert are used. WPMY-1 myofibroblast cells are initially cultured for example in a 12-well plate in DMEM medium (DMEM: Dulbecco's Modified Eagle Medium) according to a method known to the expert and to a confluence of 70% to 80%, and subsequently transfected with 2.5 μg of plasmid-DNA containing the luciferase reporter plasmid, expression plasmids for the respective PPAR subtypes and the Renilla-luciferase plasmid pRL-SV40 (Promega, Mannheim, Germany), and 2.5 μl PEI (1:1000 dilution, pH 7). Four hours after transfection, the cells are treated for 48 hours with 500 nM of the substances of this invention, and 24 later with 300 nM (GW7647 or GW1929, respectively) or 500 nM (L165041) of the respective agonist at 37° C. and 5% CO2 in an incubator. The luciferase assay is performed 48 hours after the first treatment according to the commercial method of the “dual-well-system” (pjk GmbH, Kleinblittersdorf, Germany), whereby for a normalization, not only the luciferase-, but also the Renilla activity is measured. Cells are initially lysed for this measurement, and 20 μl of the lysate is transferred into a white 96-well plate (Fisher Scientific, Hamburg, Germany). […] Mean values and standard deviation are calculated from values of three independent measurements.

| SMILES | competition with Fluormone Pan-PPAR-Green for binding to GST-PPAR beta/delta LBD (GST-PPAR beta/delta LBD) | agonist-induced transcriptional activity of PPAR beta/delta (luciferase induction) (PPAR beta/delta) |
| --- | --- | --- |
| CCCCCCNc1ccc(NS(=O)(=O)c2ccsc2C(=O)OC)c(OC)c1 [compound 1, methyl 3-(N-(4-(hexylamino)-2-methoxyphenyl)sulfamoyl)thiophene-2-carboxylate] | significant competition efficacy; also recorded: significant competition efficiency | inhibited in a PPAR subtype-specific manner |
| COC(=O)c1sccc1S(=O)(=O)Nc1ccc(NC(C)(C)C)cc1OC [compound 5, methyl 3-(N-(4-(tert-butylamino)-2-methoxyphenyl)sulfamoyl)thiophene-2-carboxylate] | significant competition efficacy; also recorded: significant competition efficiency | inhibited in a PPAR subtype-specific manner |
| CCCCCCNc1ccc(NS(=O)(=O)c2ccsc2C(=O)OC)cc1OC [compound 2, methyl 3-(N-(4-(hexylamino)-3-methoxyphenyl)sulfamoyl)thiophene-2-carboxylate] | significant competition efficacy; also recorded: significant competition efficiency | inhibited in a PPAR subtype-specific manner |

— US20150018411A1, “COMPOUNDS AS PPAR BETA/DELTA INHIBITORS FOR TREATING PPAR BETA/DELTA-MEDIATED DISEASES” (PHILIPPS-UNIVERSITAT MARBURG, priority 2011, published 2015)
